Experimental data from patent US20220256848A1, “NEO-BAVAISOFLAVONE AND COMPOSITIONS THEREOF AND THEIR USE AS PESTICIDES” (priority 2019, published 2022).
Marks after values point to notes of the source that are not given here.

Tests used:
Fusarium oxysporum = experiment: In-vitro screening against Fusarium oxysporum; type: cell-based; conditions: grade x repeats x days of activity /252 x100
Excerpt: (§1) The bioactivity values are in % and reflect the potential of eradicating the target pests.
(§2) b. Pseudomonas syringae, Rhizoctonia solani, Fusarium oxysporum, Pythium aphanidermatum—activity grade (1/2/3) X repeats# X days of activity/252 (maximal value 3×4×21=252)*100

Puccinia sorghi [1] = experiment: Puccinia infection of corn seedlings test (growth room); type: in vivo; conditions: corn plants, five independent growth room experiments
Excerpt: FIGS. 1-5 show effect of neo-bavaisoflavone (NBI) on corn leaf infection by Puccinia sorghi in five independent experiments, determined as leaf % covered by the fungus. *—p-value <0.05, **—p-value is <0.01, *** —p-value is <0.001. Signum—A reference fungicide containing 26.7% w/w boscalid and 6.7% w/w pyraclostrobin (BASF®). Fl, Formulation 1; F2, Formulation 2—see Example 5. ppm—parts per million.
In order to assist the compound dissolution to final working concentration and its spread over the sprayed surface first dry weighed Neo-bavaisoflavone was dissolved in dimethyl-sulfoxide solvent with 1:9 ratio and then brought up to the final volume used for the validation with double distilled water. Before spraying, non-ionic detergent tween 20 was added to final concentration of 0.05%.
In order to assist the compound dissolution to final working concentration and its spread over the sprayed surface first dry weighed Neo-bavaisoflavone was dissolved in absolute ethanol with 1:8 ratio, sonicated for 5 mins and then another part of non-ionic detergent tween 20 was added for formulation finalization. Before spraying, additional amount of 0.05% tween 20 was added (disregarding amount of tween 20 added before).
Protocol name: Puccinia infection of corn seedlings test
General description: inoculation on corn, collection, preparation of spore suspension and material activity study, of Puccinia sorghi.
• Use 8 days old seedlings prepared as explained above • Prepare treatment for spraying—about 1 ml for each plant • Add Tween 20 up to 0.05% to the treatments • Spray treatment on to the leaves till full saturation (use a spray bottle) and let dry in the growth room • Repeat spray on the second day and let dry • On the second day (after about 4 hours from the treatment spray) inoculate plants using the Puccinia spore suspension • Use spraying bottle to spray about 1 ml (till full saturation) of the spore suspension on to the leaves of 9 days old corn seedlings • Put the pots with the inoculated seedlings in a dark moist chamber with heated water at the bottom. […]

Phytophthora infestans = type: cell-based; conditions: activity grade x repeats /12 x100
Botrytis cinerea = experiment: In-vitro screening against Botrytis cinerea; type: cell-based; conditions: grade x repeats x days of activity /168 x100
Excerpt: as §1
c. Botrytis cinerea—activity grade (1/2/3) X repeats# X days of activity/168 (maximal value 3×4×14=168)*100

Pseudomonas syringae = experiment: Microplate bacterial growth assay against Pseudomonas syringae; type: cell-based; conditions: grade x repeats x days of activity /252 x100
Method: Summary: Diluted purified neo-bavaisoflavone was added to microplate wells and mixed with […] of frozen bacteria suspension and growth of the bacteria was monitored by visual inspection.
Background: Pseudomonas is a rod-shaped Gram-negative bacterium. Frozen bacteria stock of 60% glycerol was used as an inoculum for the screening experiment.
1) Take a plate with Neo-bavaisoflavone (10 ul) from the −20° C. freezer and thaw it on the bench for at least 20 min
2) Add 80 ul of bacteria suspension with growth medium to each well of the microplate using a multi-pipette
4) Shake the plate for 10 min at 2000 RPM to mix the Neo-bavaisoflavone with the bacteria suspension
6) Insert the plates to a plastic box with cover and put the box in the incubator at 28° C.
1) Screen the microplate at 5 dates: 3, 5, 7, 14 and 21 days after inoculation
2) Use a lamp to visually evaluate the bacterial growth
3) Prepare plates for screening: shake plate at 2000 RPM for 2 min to suspend the bacteria and then centrifuge plate at 1000 RCF for a few seconds
5) Compare the transparency of each well to the transparency of the control wells (wells containing control bactericide or 0.5% DMSO solution)
Write the results on a special form: clear=3 (no growth of bacteria), turbid=1(normal bacterial growth), inconclusive=2 (very low turbidity compared to growth in 0.5% DMSO solution) […]

Pythium aphanidermatum = experiment: Microplate zoospore growth assay against Pythium aphanidermatum; type: cell-based; conditions: grade x repeats x days of activity /252 x100
Method: Summary: Diluted purified neo-bavaisoflavone was added to microplate wells and mixed with 50 ul of zoospores in PDBC suspension and the growth of the fungus, starting from zoospores, was monitored by plate reader and visual inspection
2) Add 50 ul of zoospore suspension inoculum to the wells of the microplate using a multi-pipette. Mix the spore suspension vigorously by hand and decant amount needed for one plate (5 ml) to keep the zoospores well suspended
(§3) 4) Shake the plate for 10 min at 2000 RPM to mix the neo-bavaisoflavone with the hyphae suspension
(§4) 7) Read the plate using the plate reader
(§5) 9) Insert collected plates to a plastic box with cloth cover and put the box in the incubator at 27° C.
1) Read out the plate at 3 more dates: 3d, 7d, 14d and 21d following the assay start
2) Calculate the difference of absorbance between each readout and the readout at zero time
(§6) 3) Calculate the percentage of growth inhibition of each well at each time point. Use the results of the DMSO treatment of the control plate as 100% growth
4) Prepare a table of the results of hits that were repeated in all 4 repeats. Set a column for each time point.
as §1
b. […]

Puccinia sorghi [2] = type: cell-based
[3] = tested on: Puccinia stritiformis (yellow rust); experiment: Field validation in wheat, yellow rust leaf infection intensity (curative); type: in vivo; conditions: wheat field experiments
Mizus Persicae = experiment: In-vitro screening matrix, Mizus Persicae
Excerpt: as §1

Puccinia triticina = Puccinia triticina infected wheat, growth room under controlled temperature; type: in vivo; conditions: 200 ppm
Excerpt: Mean of 3 independent replicates is presented. ** means that p-value is <0.01. Formulation 1 see “Formulation preparation for in-planta validation” below.
We conducted 3 independent experiments in greenhouse where we estimated neo-bavaisoflavone's (NBI) potential to prevent and control Puccinia triticina in wheat plants (FIG. 6). Each bar in FIG. 6 represents average of four replicates per treatment. Neo-bavaisoflavone controlled the leaf rust with the following efficacies: between 30% to 50% at 200 ppm and between 30% to 40% at 400 ppm. One additional experiment was conducted under controlled temperature in growth room conditions (FIG. 7) where neo-bavaisoflavone controlled the wheat leaf rust with the efficacy up to 40% at 200 ppm.

[4] = tested on: Pectobacterium carotovorum; experiment: In-vitro screening against Pectobacterium carotovorum; type: cell-based; conditions: grade x repeats x days of activity /84 x100
Excerpt: as §1
d. Pectobacterium carotovorum—activity grade (1/2/3) X repeats# X days of activity/84 (maximal value 3×4×7=[…])*100

Sclerotinia sclerotiorum = experiment: Microplate hyphae growth assay against Sclerotinia sclerotiorum; type: cell-based
Method: Summary: Diluted purified neo-bavaisoflavone was added to microplate wells and mixed with 50 ul of hyphae suspension and growth of the fungus starting from blended hyphae was monitored by visual inspection.
Background: Sclerotinia sclerotiorum is a fungus of belonging to the Ascomycetes and it is a soil borne pathogen. It is difficult to produce large amounts of spores of Sclerotinia sclerotiorum, that led to decision to use hyphae in this screening rather than spores for inoculation.
2) Add 50 ul of hyphae suspension to the wells of the microplate, mix the spore suspension vigorously by hand and decant amount needed for one plate (5 ml) to keep the hyphae well suspended
as §3
7) Insert microplates into a plastic box and put the box in the incubator at 21° C.
1) Screen plate at […]: 4, 7, 14 and 21 days after inoculation
2) Use a lamp for visual assessment of compounds effect on fungal growth overtime
4) Compare the hyphal growth of each well to the hyphal growth of the control plate wells (Wells containing active fungicides or 0.5% DMSO solution)
5) Write the results on a special form: clear well=3 (no growth of hyphae), normal hyphal structure=1 (normal growth), inconclusive=2 (solid structure of unexpected type, or partial cover of the area) […]

Rhizoctonia solani = experiment: Microplate hyphae growth assay against Rhizoctonia solani; type: cell-based; conditions: grade x repeats x days of activity /252 x100
Method: Summary: Diluted purified neo-bavaisoflavone was added to microplate wells and mixed with 50 ul of hyphae suspension and growth of the fungus, starting from blended hyphae, was monitored by plate reader and visual inspection.
2) Add 50 ul of hyphae suspension to the wells of the microplate using a multi-pipette, mix the spore suspension vigorously by hand and decant amount needed for one plate (5 ml) to keep the hyphae well suspended
as §3, §4, §5
1) Screen plate at 3 more dates: 3d, 7d, 14d and 21d following the assay start
2) Calculate the difference of absorbance between each screen and the read at zero time
as §6, §1, §2

Spodoptera litoralis = experiment: In-vitro screening matrix, Spodoptera litoralis
Excerpt: as §1

[5] = tested on: Puccinia stritiformis (yellow rust); experiment: Uredospores of yellow rust in pustules on field-treated wheat leaves (experiment 108); type: in vivo
[6] = Day 0 after field treatment, ±SE, experiment 108
[7] = Day 7 after field treatment, only one case, no replicates

For `CC(C)=CCc1cc(-c2coc3cc(O)ccc3c2=O)ccc1O` [Neo-bavaisoflavone], which “Relative Activity value (%)” value (Fusarium oxysporum) is on record?
The value was 0%.

And the “average efficacy in preventing and controlling Puccinia sorghi” value (shortened to “average efficacy”) (Puccinia sorghi [1]; 200 ppm)?
Its value is 87.39%.

What about the “average efficacy” value (Puccinia sorghi [1]; 400 ppm) of the same compound?
Its value is 91.94%.

And the “average efficacy” value (Puccinia sorghi [1]; 800 ppm)?
The value was 94.07%.

What about the “Relative Activity value (%)” value (Phytophthora infestans) of the same compound?
Its value is 0%.

And the “Relative Activity value (%)” value (Botrytis cinerea)?
The value was 0%.

What about the “Relative Activity value (%)” value (Pseudomonas syringae) of the same compound?
Its value is 100%.

What about the “Relative Activity value (%)” value (Pythium aphanidermatum) of the same compound?
The value was 75%.

What about the “Relative Activity value (%)” value (Puccinia sorghi [2]) of the same compound?
Its value is 75%.

What about the “relative leaf area covered by the fungi” value [3] of the same compound?
Its value is “significantly reduced”.

What about the “Relative Activity value (%)” value (Mizus Persicae) of the same compound?
Its value is 0%.

What about the “efficacy of wheat leaf rust control” value (Puccinia triticina) of the same compound?
Its value is “up to 40%”.

And the “Relative Activity value (%)” value [4]?
Its value is 0%.

And the “Relative Activity value (%)” value (Sclerotinia sclerotiorum)?
Its value is 17%.

And the “Relative Activity value (%)” value (Rhizoctonia solani)?
Its value is 75%.

And the “Relative Activity value (%)” value (Spodoptera litoralis)?
Its value is 0%.

And the “Collapsed spores (Percent)” value [5, 6]?
The value was 36.8 ± 13.03%.

And the “Number of collapsed spores (No./pustule)” value [5, 6]?
Its value is 4.8 ± 2.03 No./pustule.

And the Number of uredospores/pustule [5, 6]?
The Number of uredospores/pustule was 14.8 ± 3.37 No.

And the “Collapsed spores (Percent)” value [5, 7]?
The value was 1.9%.

And the “Number of collapsed spores (No./pustule)” value [5, 7]?
Its value is 0.8 No./pustule.

What about the Number of uredospores/pustule [5, 7] of the same compound?
The Number of uredospores/pustule was 6.5* No.
